The numbers were not newly measured in article PMC9905294 (Biochemistry, 2023), which cites them from elsewhere.

As usually defined, the IC50 is the concentration at which inhibition is half-maximal.

SMILES strings stand for the structures.

The target in this data set is Mtb Eis (Mycobacterium tuberculosis, UniProt P9WFK7). As to conditions: previously published value; cited from earlier work.
Chain of Mtb Eis (P9WFK7 whole entry): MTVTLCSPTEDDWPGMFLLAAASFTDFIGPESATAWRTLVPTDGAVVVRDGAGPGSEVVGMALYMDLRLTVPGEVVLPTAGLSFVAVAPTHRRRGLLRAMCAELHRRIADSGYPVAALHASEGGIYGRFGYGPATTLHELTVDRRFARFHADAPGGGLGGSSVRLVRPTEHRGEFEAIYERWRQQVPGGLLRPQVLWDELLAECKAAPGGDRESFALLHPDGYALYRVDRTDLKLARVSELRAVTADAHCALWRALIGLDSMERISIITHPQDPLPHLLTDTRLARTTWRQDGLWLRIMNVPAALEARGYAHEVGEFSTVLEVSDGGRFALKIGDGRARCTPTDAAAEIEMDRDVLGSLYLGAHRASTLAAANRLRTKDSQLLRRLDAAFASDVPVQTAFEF

For the compound `[H]/N=C(\N/C(=N/[H])NCCCCCCNC(=N)NC(=N)Nc1ccc(Cl)cc1)Nc1ccc(Cl)cc1` [Chlorhexidine (CHX), Chlorhexidine], the 50% inhibitory concentration (IC50) is 670 ± 190 nM.
